Data: ChEMBL document CHEMBL1201862, “PubChem BioAssay data set” (2004)
Calls of active or inactive are those of the source.

How the values were obtained:
[1] = Jurkat T cell cytotoxicity, dose response, cytotoxicity control for P. falciparum gametocyte viability project, luminescence (AID 1117277); type: functional, cell-based;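 also: potency reflects loss of cellular ATP meaning fewer viable cells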
[2] = P. falciparum late gametocyte killing, dose response, luminescence (AID 1117278); type: functional, cell-based;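 also: gametocytes exposed to compound for 24 hours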
[3] = biological target: T1, 1-phosphatidylinositol 4,5-bisphosphate phosphodiesterase gamma-1 (Homo sapiens, UniProt P19174); assay: Counterscreen for inhibitors of phospholipase C isozymes (PLC-B3): Fluorescence-based biochemical high throughput dose response assay to identify inhibitors of phospholipase C isozymes (PLC-gamma1).
T1 sequence (P19174 whole entry): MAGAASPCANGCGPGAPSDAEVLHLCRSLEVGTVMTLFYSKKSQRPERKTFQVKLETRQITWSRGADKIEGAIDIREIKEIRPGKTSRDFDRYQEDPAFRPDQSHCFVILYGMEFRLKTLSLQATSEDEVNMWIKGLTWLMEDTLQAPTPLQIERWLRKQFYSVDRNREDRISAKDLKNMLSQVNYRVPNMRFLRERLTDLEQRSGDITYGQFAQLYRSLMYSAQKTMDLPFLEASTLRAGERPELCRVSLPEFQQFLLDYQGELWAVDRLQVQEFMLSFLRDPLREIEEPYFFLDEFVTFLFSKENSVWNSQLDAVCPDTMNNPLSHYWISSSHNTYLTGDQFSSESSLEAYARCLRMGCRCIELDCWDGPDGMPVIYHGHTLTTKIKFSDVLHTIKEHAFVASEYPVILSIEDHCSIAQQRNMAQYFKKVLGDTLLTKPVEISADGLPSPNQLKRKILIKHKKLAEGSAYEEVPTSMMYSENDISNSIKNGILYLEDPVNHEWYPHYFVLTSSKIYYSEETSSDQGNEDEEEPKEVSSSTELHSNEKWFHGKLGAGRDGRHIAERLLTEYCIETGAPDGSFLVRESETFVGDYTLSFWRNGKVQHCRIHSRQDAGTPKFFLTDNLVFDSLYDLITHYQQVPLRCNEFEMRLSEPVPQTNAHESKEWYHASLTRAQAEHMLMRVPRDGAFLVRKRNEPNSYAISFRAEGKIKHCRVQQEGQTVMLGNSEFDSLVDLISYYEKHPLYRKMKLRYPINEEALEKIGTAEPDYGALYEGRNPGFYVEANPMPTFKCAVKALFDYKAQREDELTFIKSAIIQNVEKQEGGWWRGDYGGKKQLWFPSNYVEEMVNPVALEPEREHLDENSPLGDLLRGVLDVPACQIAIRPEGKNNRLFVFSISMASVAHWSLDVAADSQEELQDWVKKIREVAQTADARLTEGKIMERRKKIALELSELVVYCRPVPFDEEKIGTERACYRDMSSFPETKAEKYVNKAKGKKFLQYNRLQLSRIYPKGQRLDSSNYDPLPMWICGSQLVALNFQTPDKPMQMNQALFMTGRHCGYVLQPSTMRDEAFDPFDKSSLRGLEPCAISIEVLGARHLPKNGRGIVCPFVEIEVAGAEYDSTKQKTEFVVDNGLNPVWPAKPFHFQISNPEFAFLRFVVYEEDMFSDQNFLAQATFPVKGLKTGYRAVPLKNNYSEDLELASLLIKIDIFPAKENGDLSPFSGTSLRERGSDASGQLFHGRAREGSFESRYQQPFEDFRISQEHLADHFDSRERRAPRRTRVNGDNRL

[4] = biological target: T2, 1-phosphatidylinositol 4,5-bisphosphate phosphodiesterase beta-3 (Homo sapiens, UniProt Q01970); assay: Fluorescence-based biochemical high throughput dose response assay to identify inhibitors of phospholipase C isozymes (PLC-B3).
T2 sequence (Q01970 whole entry): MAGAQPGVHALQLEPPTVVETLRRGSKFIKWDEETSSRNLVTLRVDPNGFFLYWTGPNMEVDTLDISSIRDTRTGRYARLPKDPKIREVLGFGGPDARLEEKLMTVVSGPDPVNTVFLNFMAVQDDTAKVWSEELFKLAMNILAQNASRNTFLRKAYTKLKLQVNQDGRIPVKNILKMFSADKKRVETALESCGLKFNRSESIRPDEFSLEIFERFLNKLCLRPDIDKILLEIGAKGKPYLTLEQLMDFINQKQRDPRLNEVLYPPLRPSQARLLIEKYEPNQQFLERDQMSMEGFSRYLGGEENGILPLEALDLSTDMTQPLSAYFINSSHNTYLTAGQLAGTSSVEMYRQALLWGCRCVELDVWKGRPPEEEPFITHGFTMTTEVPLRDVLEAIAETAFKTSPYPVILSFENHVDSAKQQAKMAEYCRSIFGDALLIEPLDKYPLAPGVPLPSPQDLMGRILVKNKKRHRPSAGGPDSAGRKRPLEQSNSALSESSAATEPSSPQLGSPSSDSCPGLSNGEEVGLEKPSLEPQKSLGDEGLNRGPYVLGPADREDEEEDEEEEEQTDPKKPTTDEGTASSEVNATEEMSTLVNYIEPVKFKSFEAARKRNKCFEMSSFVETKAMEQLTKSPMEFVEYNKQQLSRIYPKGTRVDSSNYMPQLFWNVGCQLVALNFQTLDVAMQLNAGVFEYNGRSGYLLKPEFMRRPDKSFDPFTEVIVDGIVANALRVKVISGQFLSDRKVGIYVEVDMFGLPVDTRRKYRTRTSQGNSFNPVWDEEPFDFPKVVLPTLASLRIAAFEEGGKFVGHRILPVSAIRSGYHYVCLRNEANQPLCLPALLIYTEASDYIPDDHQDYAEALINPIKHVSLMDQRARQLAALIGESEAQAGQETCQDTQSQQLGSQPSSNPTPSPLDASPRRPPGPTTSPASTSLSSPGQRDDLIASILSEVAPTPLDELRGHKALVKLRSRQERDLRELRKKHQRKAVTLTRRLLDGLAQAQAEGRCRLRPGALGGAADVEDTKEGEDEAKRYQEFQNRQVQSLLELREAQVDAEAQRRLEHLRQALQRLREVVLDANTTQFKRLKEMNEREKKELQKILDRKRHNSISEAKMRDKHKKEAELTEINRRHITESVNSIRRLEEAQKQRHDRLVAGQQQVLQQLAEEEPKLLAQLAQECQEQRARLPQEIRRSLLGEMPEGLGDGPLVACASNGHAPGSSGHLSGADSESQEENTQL

[5] = biological target: T3, Rac GTPase-activating protein 1 (Homo sapiens, UniProt Q9H0H5); assay: MgcRacGAP GTPase-activating activity inhibitors, confirmation, biochemical, ADP Hunter fluorescence, primary and confirmatory (AID 624330); type: functional
T3 sequence (Q9H0H5 whole entry): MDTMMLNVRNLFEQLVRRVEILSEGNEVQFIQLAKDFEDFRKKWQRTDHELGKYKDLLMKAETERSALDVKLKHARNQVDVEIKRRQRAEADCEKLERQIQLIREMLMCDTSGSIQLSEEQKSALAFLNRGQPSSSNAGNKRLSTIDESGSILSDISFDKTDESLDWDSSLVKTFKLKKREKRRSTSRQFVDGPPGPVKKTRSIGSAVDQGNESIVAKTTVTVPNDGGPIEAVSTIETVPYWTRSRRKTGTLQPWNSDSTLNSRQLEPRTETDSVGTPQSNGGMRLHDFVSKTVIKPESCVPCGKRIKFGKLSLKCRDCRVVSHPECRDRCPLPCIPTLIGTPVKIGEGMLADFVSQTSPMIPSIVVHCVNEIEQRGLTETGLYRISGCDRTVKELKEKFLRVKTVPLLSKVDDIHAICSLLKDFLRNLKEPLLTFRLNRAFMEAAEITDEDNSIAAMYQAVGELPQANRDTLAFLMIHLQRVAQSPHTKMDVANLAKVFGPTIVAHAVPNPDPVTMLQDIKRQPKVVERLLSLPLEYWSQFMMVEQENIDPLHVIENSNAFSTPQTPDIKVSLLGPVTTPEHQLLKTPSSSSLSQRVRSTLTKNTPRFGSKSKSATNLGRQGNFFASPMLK

[6] = human group III sPLA2 inhibitors, dose response, biochemical, QFRET, IC50 (AID 743457);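 also: green fluorescence rise as the enzyme cleaves BODIPY PC-A2 in liposomes; potency for inhibition of the enzyme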
[7] = miR-122 activators in hepatoma reporter cells, dose response, cell-based, Huh7 psiCHECK-miR122, Renilla luciferase, cherry-picked (AID 651956); type: functional;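 also: huh7 hepatoma cells stably carrying a psiCHECK-2 miR-122 sensor plasmid; renilla luciferase signal reporting endogenous miR-122 activity after 48 h compound exposure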
[8] = HEK293T cytotoxicity, dose response, cytotoxicity control for miR-122 modulator project, cell-based, inhibitor set, cherry-pick, set 2 (AID 720697); type: functional
[9] = HEK293T cytotoxicity, dose response, cytotoxicity control for miR-122 modulator project, cell-based, activator set, cherry-pick (AID 720690); type: functional;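 also: HEK293T human cells scored for general mammalian cytotoxicity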
[10] = HepG2 cell cytotoxicity, dose response, cytotoxicity control, plate reader, dry powder samples (AID 1159569); type: functional, cell-based;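 also: inhibitor potency with signal falling toward the positive control level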
[11] = P. falciparum Dd2 growth inhibitors, dose response, SYBR Green, cherry-picked samples (AID 1159567); type: functional, cell-based
[12] = P. falciparum Dd2 growth inhibitors, dose response, SYBR Green, dry powder samples (AID 1159566); type: functional, cell-based;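 also: potency for growth inhibition with lower SYBR green DNA signal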
[13] = P. falciparum ATP4 D1247Y mutant growth inhibitors, dose response, NITD609-resistant line, SYBR Green, dry powder (AID 1159571); type: functional, cell-based;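 also: parasites synchronized at ring stage by sorbitol before testing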
[14] = P. falciparum 3D7-ScDHODH growth inhibitors, dose response, SYBR Green, dry powder samples (AID 1159570); type: functional, cell-based;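 also: parasite growth measured after 72 hours of compound exposure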
Cytochrome P450 1A2 = biological target: T4, Cytochrome P450 1A2 (Homo sapiens, UniProt P05177);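 also: PubChem cytochrome P450 panel assay, CYP1A2 panel member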
T4 sequence (P05177 whole entry): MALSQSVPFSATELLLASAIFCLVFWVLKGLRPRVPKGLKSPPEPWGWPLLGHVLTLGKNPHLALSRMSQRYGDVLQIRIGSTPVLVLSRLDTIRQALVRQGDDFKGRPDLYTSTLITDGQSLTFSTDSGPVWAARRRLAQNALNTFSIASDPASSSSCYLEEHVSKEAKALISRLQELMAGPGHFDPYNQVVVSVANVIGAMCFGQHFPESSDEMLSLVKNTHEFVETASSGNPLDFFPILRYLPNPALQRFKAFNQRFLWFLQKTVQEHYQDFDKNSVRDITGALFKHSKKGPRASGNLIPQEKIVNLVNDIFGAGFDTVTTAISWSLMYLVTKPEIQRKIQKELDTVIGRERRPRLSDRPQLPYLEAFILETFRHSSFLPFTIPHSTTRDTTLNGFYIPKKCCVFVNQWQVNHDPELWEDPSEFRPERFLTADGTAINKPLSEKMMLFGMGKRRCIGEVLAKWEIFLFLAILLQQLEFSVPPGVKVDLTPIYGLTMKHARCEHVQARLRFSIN

[15] = Vero cell cytotoxicity, dose response, cytotoxicity control for Vif-APOBEC3G degradation inhibitor project, Vero cells (AID 1117358); type: functional; settings: Human immunodeficiency virus 1, Vero
Fatty acid synthase [16] = biological target: T5, Fatty acid synthase (Homo sapiens, UniProt P49327); assay: FAS thioesterase domain inhibitors, dose response, biochemical, endpoint fluorescence intensity, uHTS hits (AID 624327); type: functional;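 also: fluorescence from hydrolysis of an O-methyl fluorescein acyl ester substrate by the enzyme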
BJ [17] = assay: cytotoxicity toward Ras-transformed BJeLR fibroblasts, dose response, cell-based, alamar blue fluorescence, cherrypicked samples (AID 2631); type: functional; settings: Homo sapiens;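 also: confirmatory dose-response assay in RAS-dependent BJ fibroblasts engineered with TERT, LT and ST, with cytotoxicity read by fluorescence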
Fatty acid synthase [18] = biological target: T5, Fatty acid synthase; assay: FAS thioesterase domain inhibitors, dose response, biochemical, kinetic fluorescence intensity (AID 624326); type: functional;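 also: rate of fluorescence rise from hydrolysis of a fluorogenic O-methyl fluorescein ester substrate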
[19] = cytotoxicity toward DRD oncogenic fibroblasts, dose response, cell-based, non-viral oncogenic, luminescence (AID 1934); type: functional; settings: Homo sapiens
BJ [20] = assay: cytotoxicity toward BJ-TERT-LT-ST fibroblasts, dose response, cell-based, RAS-independent, luminescence (AID 1935); type: functional; settings: Homo sapiens;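 also: BJ fibroblasts immortalized with TERT plus LT and ST oncogenes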
BJ [21] = assay: cells; type: functional, cell-based; settings: Homo sapiens
BJ [22] = assay: cytotoxicity toward BJ-TERT fibroblasts, dose response, cell-based, RAS-independent, luminescence (AID 1933); type: functional; settings: Homo sapiens

T5 sequence (P49327 whole entry, the tested form may be a part): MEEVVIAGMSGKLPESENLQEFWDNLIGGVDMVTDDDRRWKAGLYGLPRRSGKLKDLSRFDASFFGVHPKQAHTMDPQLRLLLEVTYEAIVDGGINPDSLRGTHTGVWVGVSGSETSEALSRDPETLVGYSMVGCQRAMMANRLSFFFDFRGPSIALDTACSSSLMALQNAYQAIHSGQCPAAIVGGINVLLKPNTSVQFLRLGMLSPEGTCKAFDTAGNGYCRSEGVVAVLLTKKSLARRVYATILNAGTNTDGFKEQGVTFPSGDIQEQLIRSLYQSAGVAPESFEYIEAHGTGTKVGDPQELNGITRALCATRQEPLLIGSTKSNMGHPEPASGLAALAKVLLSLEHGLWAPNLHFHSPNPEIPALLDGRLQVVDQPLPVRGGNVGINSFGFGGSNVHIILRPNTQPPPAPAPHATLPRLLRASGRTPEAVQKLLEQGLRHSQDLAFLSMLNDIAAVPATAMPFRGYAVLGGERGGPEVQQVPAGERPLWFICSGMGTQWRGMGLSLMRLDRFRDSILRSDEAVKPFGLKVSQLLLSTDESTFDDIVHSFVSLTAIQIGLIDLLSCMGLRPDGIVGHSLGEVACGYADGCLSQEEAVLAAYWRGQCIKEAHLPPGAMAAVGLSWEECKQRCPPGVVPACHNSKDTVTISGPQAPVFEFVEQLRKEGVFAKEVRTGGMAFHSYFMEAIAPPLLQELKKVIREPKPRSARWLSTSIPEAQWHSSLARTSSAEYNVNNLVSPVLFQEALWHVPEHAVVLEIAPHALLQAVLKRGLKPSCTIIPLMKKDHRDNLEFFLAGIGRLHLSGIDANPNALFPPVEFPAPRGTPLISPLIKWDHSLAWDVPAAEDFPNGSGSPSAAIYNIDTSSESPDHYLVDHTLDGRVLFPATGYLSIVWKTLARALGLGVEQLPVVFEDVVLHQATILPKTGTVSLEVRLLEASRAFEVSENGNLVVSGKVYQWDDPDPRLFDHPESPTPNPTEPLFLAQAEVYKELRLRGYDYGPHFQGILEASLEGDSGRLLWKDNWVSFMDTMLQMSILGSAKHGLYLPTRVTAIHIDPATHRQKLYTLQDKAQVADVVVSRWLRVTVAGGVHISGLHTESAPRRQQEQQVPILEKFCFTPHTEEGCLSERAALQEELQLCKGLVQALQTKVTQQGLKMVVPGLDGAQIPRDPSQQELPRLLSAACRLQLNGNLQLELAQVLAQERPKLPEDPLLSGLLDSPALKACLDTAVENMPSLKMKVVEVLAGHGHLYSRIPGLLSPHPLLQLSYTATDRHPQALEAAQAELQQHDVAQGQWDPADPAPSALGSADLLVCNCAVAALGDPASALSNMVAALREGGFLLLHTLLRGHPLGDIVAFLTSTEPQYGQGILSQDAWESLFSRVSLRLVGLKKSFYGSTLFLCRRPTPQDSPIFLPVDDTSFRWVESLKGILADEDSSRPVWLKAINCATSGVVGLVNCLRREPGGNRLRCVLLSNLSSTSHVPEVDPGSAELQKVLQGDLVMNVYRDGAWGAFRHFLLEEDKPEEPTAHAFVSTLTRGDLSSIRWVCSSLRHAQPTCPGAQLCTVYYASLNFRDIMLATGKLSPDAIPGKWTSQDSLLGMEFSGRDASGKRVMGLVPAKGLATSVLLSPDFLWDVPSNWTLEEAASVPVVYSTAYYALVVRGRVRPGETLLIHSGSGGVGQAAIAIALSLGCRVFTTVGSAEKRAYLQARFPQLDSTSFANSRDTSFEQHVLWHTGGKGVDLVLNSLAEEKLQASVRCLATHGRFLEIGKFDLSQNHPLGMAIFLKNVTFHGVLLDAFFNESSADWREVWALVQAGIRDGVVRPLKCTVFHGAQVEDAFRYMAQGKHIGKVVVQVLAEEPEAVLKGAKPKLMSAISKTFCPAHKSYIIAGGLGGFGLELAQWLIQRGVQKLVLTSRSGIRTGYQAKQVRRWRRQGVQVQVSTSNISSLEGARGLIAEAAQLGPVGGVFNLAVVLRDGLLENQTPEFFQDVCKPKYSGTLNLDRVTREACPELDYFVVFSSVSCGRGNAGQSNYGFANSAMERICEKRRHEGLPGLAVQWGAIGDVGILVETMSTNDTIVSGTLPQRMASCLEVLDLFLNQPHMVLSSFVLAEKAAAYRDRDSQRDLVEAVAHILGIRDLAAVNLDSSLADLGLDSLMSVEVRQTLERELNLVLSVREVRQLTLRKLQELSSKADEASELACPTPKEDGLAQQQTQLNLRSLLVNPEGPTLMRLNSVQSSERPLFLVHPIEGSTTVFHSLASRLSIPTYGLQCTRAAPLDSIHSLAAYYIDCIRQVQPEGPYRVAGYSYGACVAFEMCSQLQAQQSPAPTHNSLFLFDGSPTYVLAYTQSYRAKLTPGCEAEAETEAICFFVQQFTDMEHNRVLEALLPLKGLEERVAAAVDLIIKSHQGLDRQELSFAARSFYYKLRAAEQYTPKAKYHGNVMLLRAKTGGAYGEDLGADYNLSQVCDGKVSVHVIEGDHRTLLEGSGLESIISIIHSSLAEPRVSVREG

## NS(=O)(=O)c1ccc(N2CCCC2=O)c([N+](=O)[O-])c1
[1]
  IC50: > 83.2 µM (inactive)
[2]
  IC50: > 109 µM (inactive)

## COc1ccc(CCNCc2c(OC)ccc3ccccc23)cc1
[3]
  IC50: > 123 µM (inactive)
[4]
  IC50: > 123 µM (inactive)

## Cc1ccc(Nc2n[nH]c(=S)s2)cc1
[5]
  IC50: 72.2 µM (active)
[6]
  IC50: > 122 µM (inactive)

## CN1C(=O)c2cc(NC(=O)c3ccc(C(F)(F)F)cc3)ccc2OC[C@@H]2O[C@H](CC(=O)NCc3ccc4c(c3)OCO4)CC[C@@H]21
[7]
  AC50: 6.22 µM (active)
[8]
  AC50: 28 µM (active)
[9]
  AC50: 12.6 µM (active)

## O=C1CS(=O)(=O)c2ccccc2N1
[3]
  IC50: 35.7 µM (inactive)
[4]
  IC50: > 123 µM (inactive)

## CNC[C@H]1Oc2cc(C#CC3CCCCC3)ccc2S(=O)(=O)N([C@H](C)CO)C[C@@H]1C
[8]
  AC50: 0.433 µM (active)
[9]
  AC50: 28.8 µM (active)

## COc1ccccc1CN(C)C(C)C(=O)Nc1cccc(C(C)=O)c1 (configuration not stated)
[1]
  IC50: > 83.3 µM (inactive)
[2]
  IC50: > 109 µM (inactive)

## COc1ccc2c3c(n(C)c2c1)[C@@H](CO)N(Cc1ccc(Cl)cc1)CC31CCN(CC2CC2)CC1
[10]
  AC50: 22 µM (active)
[11]
  AC50: 1.86 µM (active)
[12]
  AC50: 1.67 µM (active)
[13]
  AC50: 1.7 µM (active)
[14]
  AC50: 2.64 µM (active)

## Cc1ccc(NS(=O)(=O)c2ccc(OCC(=O)Nc3cccc([N+](=O)[O-])c3)c(C)c2)cc1
Cytochrome P450 1A2
  AC50: 22.4 µM (inconclusive)
[15]
  CC50: > 40 µM (active)

## COc1cc(C(=O)N2CCC(n3cnc4cc(F)ccc43)CC2)cc(OC)c1OC
[1]
  IC50: > 83.3 µM (inactive)
[2]
  IC50: > 109 µM (inactive)

## COc1ccc(NC(=O)Nc2ccc3c(c2)[C@@H]2C[C@H](CC(=O)N[C@@H](C)c4ccccc4)O[C@H](CO)[C@@H]2O3)cc1
[10]
  AC50: > 100 µM (inactive)
[11]
  AC50: 2.22 µM (active)
[12]
  AC50: 1.62 µM (active)
[13]
  AC50: 2.16 µM (active)
[14]
  AC50: 35.3 µM (active)

## O=C(NC(Nc1ncc(S(=O)(=O)c2ccc([N+](=O)[O-])cc2)s1)(C(F)(F)F)C(F)(F)F)c1ccc(Cl)cc1
Fatty acid synthase [16]
  IC50: 9.12 µM (active)
[7]
  AC50: 2.35 µM (active)
BJ [17]
  EC50: 83.6 µM (active)
Fatty acid synthase [18]
  IC50: 7.87 µM (active)
[8]
  AC50: 9.01 µM (active)
[9]
  AC50: 4.29 µM (active)
[19]
  EC50: 12.4 µM (active)
BJ [20]
  EC50: 20.1 µM (active)
BJ [21]
  EC50: 52.1 µM (active)
BJ [22]
  EC50: 11 µM (inconclusive)

## COc1ccccc1-n1c(CNCC2CCCO2)nc2ccccc2c1=O (configuration not stated)
[3]
  IC50: > 122 µM (inactive)
[4]
  IC50: > 122 µM (inactive)

## Sc1nnc(COc2ccc(Cl)cc2)n1-c1ccccc1
[6]
  IC50: > 122 µM (inactive)
